From BindingDB's records for doi:10.1016/j.bmcl.2012.11.036 (University of Namur, 2012) come the findings set out here.

Molecules are shown by their SMILES. pIC50: −log10 of the molar value.

The target of the assay is Indoleamine 2,3-dioxygenase 1 (Homo sapiens, UniProt P14902). The assay can be described thus: Inhibition of human recombinant IDO1 using L-Trp as substrate assessed as kynurenine level after 30 mins.
Indoleamine 2,3-dioxygenase 1, sequence (P14902 whole entry): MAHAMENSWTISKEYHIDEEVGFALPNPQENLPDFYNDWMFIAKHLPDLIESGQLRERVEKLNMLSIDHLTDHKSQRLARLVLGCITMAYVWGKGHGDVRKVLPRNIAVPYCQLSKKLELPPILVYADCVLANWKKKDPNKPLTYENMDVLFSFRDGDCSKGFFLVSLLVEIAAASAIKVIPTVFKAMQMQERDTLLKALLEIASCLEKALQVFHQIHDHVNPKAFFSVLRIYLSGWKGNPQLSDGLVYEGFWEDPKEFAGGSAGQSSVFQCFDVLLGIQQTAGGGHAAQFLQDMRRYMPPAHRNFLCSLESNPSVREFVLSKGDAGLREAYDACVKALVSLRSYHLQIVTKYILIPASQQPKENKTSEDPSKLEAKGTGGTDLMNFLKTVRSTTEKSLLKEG

With `COc1ccc(C2CN=C3C(=O)c4c(CCN)cn(S(=O)(=O)c5ccc(C)cc5)c4C(=O)C32)cc1` (configuration not stated), the pIC50 is 5.25.

Regarding `COc1ccc(C2CN=C3C(=O)c4ccn(S(=O)(=O)c5ccc(C)cc5)c4C(=O)C32)cc1` (configuration not stated), the pIC50 is 5.25.

For orientation: pIC50 means −log10 of the IC50, conventionally taken in molar units.
